Data taken from BindingDB's records for patent US20240132503 (Ocumension Therapeutics (Suzhou) Co., 2024).
pIC50: −log10 of the molar value.

Target: Tyrosine-protein kinase SYK (Homo sapiens, UniProt P43405)
Test: In Vitro Evaluation of Inhibitory Activity Against Syk Protein Kinase
Description: Test Procedure and Method:(a) Compound dilution and microplate injection1) Compound powder was weighed and dissolved in a specific amount of DMSO at an initial concentration of 10 mM.2) The compound was diluted to have a concentration of 0.74 mM, POD18 was used for microplate injection by 135 nL per well, an initial concentration of the compound was 10 μM, and 11 concentrations and 3-fold descending serial dilution were carried out.(b) Reaction stage of enzyme and substrate1) Preparation of test buffer dilution: 5×HTRF buffer in the kit was diluted to 1×HTRF buffer, and a specified amount of DTT and MgCl2 solution were added for later use.2) A Syk enzyme reaction solution was prepared with 1×HTRF buffer, so that a final reaction concentration of Syk kinase was 0.0156 ng/μL.3) A TK-Substrate-biotin/ATP mixture was prepared, so that a final substrate concentration was controlled to be 0.2 μM. An ATP concentration was controlled to be 2 μM.4) A mutidorp injector was used to add the sample, 5 μL of Syk enzyme solution and TK-Substrate-biotin/ATP mixture were added to each well, and incubated at 23° C. for 1 hour.

**Q.** How did the pIC50 turn out when `c1cc(N2CCOCC2)ccc1NC1=Nc2ccc(-c3cn[nH]c3)cc2N2CCN=C12` [US20240132503, Compound Crystal form A Compound Formula 1] was run?
**A.** Its pIC50 is 7.60.
